{"source": "patent US9012414B2", "about": "“Cosmetic composition” (Guerlain, priority 2010, dated 2015)", "key": {"cytochrome C oxidase": {"tested_on": "cytochrome C oxidase", "experiment": "Stimulation of cytochrome C oxidase on modified human keratinocytes (HaCaT)", "type": "cell-based", "details": "for Activation of cytochrome C oxidase activity: HaCaT cells, treatment 3 h, positive control resveratrol 11.41 μg/ml (50 μM)", "procedure": "The objective of the study is to evaluate the potential of the compounds which are the subject of the invention for stimulating the performance levels of the mitochondrial respiratory chain. The assays are carried out on genetically modified human keratinocytes (HaCaT).\nThe HaCaT cells were cultured in 6-well plates in RPMI 1640 medium (Roswell Park Memorial Institute) w/o HEPES (Invitrogen) supplemented with 10% of fetal calf serum (FCS, Invitrogen) and a penicillin/streptomycin mixture, until confluence. They were then treated, in DMEM (Dulbecco's Modified Eagle Medium, Invitrogen) containing 4.5 g/L of glucose, 0.1% BSA (Bovine Serum albumin AM2618 Invitrogen), with serial dilutions of vandaterosides (from 6.25 to 0.78 μg/ml) diluted in DMSO (0.1% v/v final concentration). Resveratrol (Sigma) at 50 μM, i.e. 11.41 μg/ml, was used as positive reference. The untreated cells containing 0.1% v/v of DMSO were considered to be a negative control. After treatment for 3 h, the cells were lysed (20 mM HEPES, 0.1% Triton, 1 mM EDTA) and the total cell proteins were assayed by means of the Bradford technique (B6916 Sigma). The total protein concentration of each sample was then adjusted to 2 mg/ml.\nThe cell lysate was incubated in the presence of an assay buffer (Sigma) in order to determine the enzymatic kinetics without the addition of substrate, denoted Vo. Cytochrome C (from equine heart C-7752 Sigma) reduced with DTT (dithiothreitol, Sigma) was added to the assay buffer at 50 μM in order to measure the rate of the enzymatic reaction. The disappearance of the reduced cytochrome C was monitored using a spectrophotometer [Beckman DU 640] at 550 nm for 90 seconds according to the manufacturer's (Sigma) instructions. The results were calculated from the enzymatic kinetics curves and are expressed as cytochrome C oxidase activity (U/μg of proteins).\nThe equations allowing the calculation of the enzymatic activities are the following: Enzymatic activity of cytochrome C in U/ml=ACOX=(DA/min)/21.84 with: • DA/min=A/min(v)−A/min (v0) • 21.84 (mM)=ε(molar extinction coefficient) of ferrocytochrome C at 550 nm • A=Absorbance at 550 nm • A/min(v)=Absorbance at 550 nm at time “v” in minutes, corresponding to the time of the measurement after the addition of the substrate; • A/min (v0)=Absorbance at 550 nm at time “v0” (at the start, i.e. before the addition of substrate) in minutes.\nThe results are expressed by comparison of the enzymatic activity measured in the presence of the vandaterosides (ACOX samples) relative to the control enzymatic activity (ACOX control): i.e. (ACOX samples)/(ACOX control).\nA calculated (ACOX samples)/(ACOX control) ratio of greater than 1 indicates stimulation of the activity of cytochrome C oxidase in the presence of the samples."}, "HaCaT cells": {"tested_on": "HaCaT cells", "experiment": "Measurement of mitochondrial biogenesis on modified human keratinocytes (HaCaT), qPCR of 16S and COX2 DNA versus UCP-2", "type": "cell-based", "details": "48 h", "procedure": "The objective is to verify whether or not the increase in enzymatic activity measured is linked to a basal stimulation of the respiratory chain of the mitochondria initially present or to an increase in the number of intracellular mitochondria, indicative of a stimulation of mitochondrial biogenesis.\nThe HaCaT cells are cultured in 6-well plates and then treated as described above. After treatment for 48 h, the cells are lysed with a buffer consisting of 10 mM of Tris base, 1 mM EDTA, 0.3M of sodium acetate and 1% SDS (1 ml/well) and according to an incubation time of overnight at 55° C. The mitochondrial DNA is extracted from the cell lysate with a phenol solution (1/1 ratio). Two cycles of centrifugation at 4000 rpm (5 minutes) are carried out. A solution de CHCl3/isoamyl alcohol (24:1, v/v) is then added to the upper aqueous phase, recovered after settling out. The mixture is then centrifuged (5 minutes, 4000 rpm, 4° C.).\nPrecipitation of the total DNA is induced by adding an absolute ethanol/3M sodium acetate mixture ([…]) to the supernatant. After centrifugation (30 minutes, 12000 rpm, 4° C.), the pellets are washed with EtOH at 70° v/v, and then dried and taken up in deionized water. The DNA is assayed using a spectrometer (Thermo Scientific Nanodrop). The DNA solutions are adjusted to a concentration of 10 ng/μl.\nThe expression of three different genes is measured by qPCR. This technique makes it possible to measure the amount of DNA polymerized by means of a fluorescent label. […]\nThe fluorescence is measured after the 45 cycles and the amount of DNA obtained is determined by means of the DNA range.\nThe results are expressed in amount of 16S and COX2 (QCOX2) DNA, calculated according to the amount of UCP-2 genomic DNA (QUCP-2), and which is defined as (QCOX2)/(QUCP-2)\nA calculated (QCOX2)/(QUCP-2) ratio of greater than 1 indicates an increase in the amount of mitochondrial DNA, and reflects an increase in the number of intracellular mitochondria."}, "[1]": {"details": "concentrations tested other than VT1 at 6.25 μg/ml"}}, "note": "“Also recorded” adds a separate entry of the source.", "data": [{"smiles": "O=C(CC(O)(Cc1ccc(O)cc1)C(=O)O)OCc1ccc(O[C@@H]2O[C@H](CO)C(O)[C@H](O)[C@H]2O)cc1", "note": "(stereo partly drawn) [VT1, 4-(4-β-D-glucopyranosyloxybenzyl)-(2R)-2-(p-hydroxybenzyl) malate]", "values": [{"measurement": "Activation of cytochrome C oxidase activity", "setting": "cytochrome C oxidase; 6.25 to 0.78 μg/ml", "value": "stimulatory effect"}, {"measurement": "Dose effect on cytochrome C oxidase activity", "setting": "cytochrome C oxidase; HaCaT, 6.25 to 0.78 μg/ml, 3 h", "value": "A dose effect is observed"}, {"measurement": "Activation of mitochondrial biogenesis (increase in number of intracellular mitochondria)", "setting": "HaCaT cells; 6.25 μg/ml, the exception means activation was seen", "value": "with the exception of VT1 at 6.25 μg/ml"}, {"measurement": "Activation of mitochondrial biogenesis (increase in number of intracellular mitochondria)", "setting": "HaCaT cells; [1]", "value": "neither of the two compounds induces an activation of mitochondrial biogenesis"}]}, {"smiles": "O=C(CC(O)(Cc1ccc(O)cc1)C(=O)OCc1ccc(O[C@@H]2O[C@H](CO)[C@@H](O)[C@H](O)[C@H]2O)cc1)OCc1ccc(O[C@@H]2O[C@H](CO)[C@@H](O)[C@H](O)[C@H]2O)cc1", "note": "(stereo partly drawn) [VT2, 1,4-bis(4-β-D-glucopyranosyloxybenzyl)-(2R)-2-(p-hydroxybenzyl) malate]", "values": [{"measurement": "Activation of cytochrome C oxidase activity", "setting": "cytochrome C oxidase; 6.25 to 0.78 μg/ml", "value": "stimulatory effect; also recorded: best cytochrome C oxidase activator"}, {"measurement": "Cytochrome C oxidase activity level compared with resveratrol", "setting": "cytochrome C oxidase; HaCaT, 1.56 μg/ml (2 μM), 3 h, versus resveratrol 11.41 μg/ml (50 μM)", "value": "comparable to resveratrol"}, {"measurement": "Activation of mitochondrial biogenesis (increase in number of intracellular mitochondria)", "setting": "HaCaT cells; [1]", "value": "neither of the two compounds induces an activation of mitochondrial biogenesis"}]}]}
